From article PMC6222329 (Molecules : A Journal of Synthetic Chemistry and Natural …, 2018)

How the values were obtained:
[1] = biological target: T1, AChE (Electrophorus electricus) (Electrophorus electricus, UniProt O42275); test: AChE inhibition, Ellman's method; type: biochemical
T1 construct: purchased Sigma-Aldrich (Steinheim, Germany)
Summary of the method: (§1)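 Ellman's colorimetric assay run in two steps, with enzyme in 1% gelatin (2.5 units/mL) and reaction started with DTNB (10 mM) and substrate (75 mM), both stock concentrations.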

AChE (Human) = biological target: T2, AChE (Human) (Homo sapiens, UniProt P22303); test: AChE inhibition, Ellman's method; type: biochemical
T2 construct: purchased Sigma-Aldrich (Steinheim, Germany)
T2 sequence (P22303 32-614): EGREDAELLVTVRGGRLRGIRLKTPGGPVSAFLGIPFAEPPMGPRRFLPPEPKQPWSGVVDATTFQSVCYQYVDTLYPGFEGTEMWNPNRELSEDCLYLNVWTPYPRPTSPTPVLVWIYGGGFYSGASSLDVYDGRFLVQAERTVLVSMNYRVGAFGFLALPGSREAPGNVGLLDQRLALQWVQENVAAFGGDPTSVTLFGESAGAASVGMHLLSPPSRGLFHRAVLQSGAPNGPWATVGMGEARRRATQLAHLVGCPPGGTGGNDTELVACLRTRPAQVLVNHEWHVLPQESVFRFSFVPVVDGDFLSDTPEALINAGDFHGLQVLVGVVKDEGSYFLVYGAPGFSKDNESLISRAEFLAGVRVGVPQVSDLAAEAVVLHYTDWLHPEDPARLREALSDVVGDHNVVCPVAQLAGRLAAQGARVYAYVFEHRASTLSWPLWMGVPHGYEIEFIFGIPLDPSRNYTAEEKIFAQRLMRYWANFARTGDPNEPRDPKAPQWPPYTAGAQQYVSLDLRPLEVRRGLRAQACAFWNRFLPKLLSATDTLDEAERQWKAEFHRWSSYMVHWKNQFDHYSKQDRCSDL
Summary of the method: as §1

BChE (Equine) = biological target: T3, BChE (Equine) (Equus caballus, UniProt P81908); test: biochemical; type: biochemical
T3 construct: purchased Sigma-Aldrich (Steinheim, Germany)
T3 sequence (P81908 whole entry): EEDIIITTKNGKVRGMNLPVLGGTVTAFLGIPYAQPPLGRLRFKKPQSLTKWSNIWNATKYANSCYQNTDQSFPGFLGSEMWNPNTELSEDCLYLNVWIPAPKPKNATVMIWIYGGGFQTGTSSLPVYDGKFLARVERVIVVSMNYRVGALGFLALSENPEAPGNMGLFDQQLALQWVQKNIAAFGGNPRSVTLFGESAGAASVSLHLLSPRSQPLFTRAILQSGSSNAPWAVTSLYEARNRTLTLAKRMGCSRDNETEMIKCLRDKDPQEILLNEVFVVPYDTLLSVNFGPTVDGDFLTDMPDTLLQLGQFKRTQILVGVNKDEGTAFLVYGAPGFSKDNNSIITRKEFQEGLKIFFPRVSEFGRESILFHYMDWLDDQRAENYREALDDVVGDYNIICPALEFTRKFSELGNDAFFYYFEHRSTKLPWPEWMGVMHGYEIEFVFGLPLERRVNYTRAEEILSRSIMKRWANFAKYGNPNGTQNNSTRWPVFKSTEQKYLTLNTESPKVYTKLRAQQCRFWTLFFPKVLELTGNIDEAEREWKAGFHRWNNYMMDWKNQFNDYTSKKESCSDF
Summary of the method: as §1

BChE (Human) = biological target: T4, BChE (Human) (Homo sapiens, UniProt P06276); test: BChE inhibition, Ellman's method; type: biochemical
T4 construct: purchased Sigma-Aldrich (Steinheim, Germany)
T4 sequence (P06276 29-602): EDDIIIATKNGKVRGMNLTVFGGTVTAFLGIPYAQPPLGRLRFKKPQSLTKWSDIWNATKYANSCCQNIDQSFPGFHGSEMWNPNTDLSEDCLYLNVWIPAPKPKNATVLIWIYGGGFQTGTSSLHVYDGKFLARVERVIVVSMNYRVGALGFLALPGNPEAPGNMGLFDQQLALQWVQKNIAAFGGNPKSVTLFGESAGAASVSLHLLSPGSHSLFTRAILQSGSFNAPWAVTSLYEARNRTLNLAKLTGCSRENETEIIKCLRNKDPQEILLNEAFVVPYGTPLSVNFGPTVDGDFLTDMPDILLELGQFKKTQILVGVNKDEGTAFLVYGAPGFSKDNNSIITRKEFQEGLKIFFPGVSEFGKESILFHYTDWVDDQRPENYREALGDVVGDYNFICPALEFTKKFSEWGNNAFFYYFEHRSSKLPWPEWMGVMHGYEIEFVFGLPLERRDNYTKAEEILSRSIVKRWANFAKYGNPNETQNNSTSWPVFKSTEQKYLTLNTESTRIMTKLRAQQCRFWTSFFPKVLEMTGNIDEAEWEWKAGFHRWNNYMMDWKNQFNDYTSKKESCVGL
Summary of the method: as §1

[2] = biological target: T5, human butyrylcholinesterase (BChE) (Homo sapiens, UniProt P06276); test: Enzyme kinetics of BChE inhibition (Lineweaver-Burk plots); type: biochemical
T5 construct: purchased Sigma-Aldrich (Steinheim, Germany)
T5 sequence (P06276 29-602): as above
Text: To recognize the inhibition type, enzyme kinetics studies were applied using Lineweaver–Burk plots. […]. […] This pattern also indicates a mixed-type inhibition.
The calculation of the inhibition constant (Ki) is an effective tool for measuring the affinity of an enzyme for […], and it is easily determined using the secondary plots of the Lineweaver–Burk equation. […].
In the kinetics studies, the assay protocol specified for the inhibition assay was identical. […]. Measurements were performed one of two ways, in the presence and in the absence of the inhibitor. […]. After addition of BChE (20 μL/well), the mixture was incubated under the same conditions as the activity assay. Then, the reaction was initiated by the addition of Ellman’s reagent (DTNB; 20 µL/well, 10 mM) and the substrate (10 µL/well, 75 mM). The absorbance was measured for 10 min at 412 nm. The enzyme solution was processed as a control. All readings were adjusted with blank-reading. The results were analyzed as Lineweaver–Burk plots using Microsoft Office Excel 2013 [15].

MTT cell viability assay = type: cell-based, murine; details: mouse, NIH3T3 murine embryonic fibroblast cells, 0.000316 µM to 1000 µM, read-out: IC50 against NIH3T3
Method: The active compounds (4a, 4b, 4e, 4i, 4m, 4n, 4o, and 4t) were chosen to determine their cytotoxic activity toward a murine fibroblast healthy cell line (NIH3T3). After incubating the cells with active compounds at concentrations of 0.000316 µM to1000 µM for 24 h, the cell viability was measured using the 3-(4,5-dimethylthiazol-2-yl)-2,5-diphenyltetrazolium (MTT) assay. The inhibition percentage was calculated for each concentration of the test compounds. The IC50 values of the compounds were determined using a non-linear regression analysis over the calculated percentage inhibition values, and they are presented in Table 2. Accordingly, the cytotoxicity test proposed that the active derivatives were nontoxic against NIH3T3 cells at their active concentrations against BChE.
Healthy murine embryonic fibroblast cells (NIH3T3 cell line) were used for the cytotoxicity tests. The cell line and selected compounds were prepared for an MTT assay as reported previously. The optical densities (OD) of 96 well plates were recorded at 540 nm. […]

[3] = read-out: AChE (Electrophorus electricus) inhibitory activity (%) ± SD
[4] = read-out: AChE (Human) inhibitory activity (%) ± SD
[5] = read-out: BChE (Human) inhibitory activity (%) ± SD

T1 sequence (O42275 24-633): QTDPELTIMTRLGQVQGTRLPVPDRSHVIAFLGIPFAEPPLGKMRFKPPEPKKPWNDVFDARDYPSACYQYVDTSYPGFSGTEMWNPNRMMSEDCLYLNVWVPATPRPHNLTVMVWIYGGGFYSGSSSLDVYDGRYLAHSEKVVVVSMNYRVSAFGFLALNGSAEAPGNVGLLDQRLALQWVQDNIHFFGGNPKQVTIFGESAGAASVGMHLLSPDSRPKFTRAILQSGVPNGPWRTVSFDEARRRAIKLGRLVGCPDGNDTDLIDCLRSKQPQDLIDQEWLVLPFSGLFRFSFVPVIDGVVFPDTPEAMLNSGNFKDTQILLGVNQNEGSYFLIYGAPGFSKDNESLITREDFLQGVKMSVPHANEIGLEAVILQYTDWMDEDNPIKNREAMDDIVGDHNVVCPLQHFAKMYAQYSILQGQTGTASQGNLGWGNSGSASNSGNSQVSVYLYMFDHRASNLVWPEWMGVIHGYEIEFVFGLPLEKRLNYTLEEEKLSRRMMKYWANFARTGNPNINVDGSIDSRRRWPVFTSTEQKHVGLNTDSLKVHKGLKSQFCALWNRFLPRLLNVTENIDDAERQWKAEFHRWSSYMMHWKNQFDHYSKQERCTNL

O=C(CSC(=S)N1CCN(Cc2ccc(C(F)(F)F)cc2)CC1)Nc1c2ccccc2nc2ccccc12 [Compound 4n, 2-(9-Acridinylamino)-2-oxoethyl 4-(4-(trifluoromethyl)benzyl)piperazine-1-carbodithioate]
IC50 [1]: 45.9 ± 1.58 µM | inhibition at 0.001 µM [1, 3]: 6.91 ± 0.27% | inhibition at 0.01 µM [1, 3]: 8.43 ± 0.38% | inhibition at 0.1 µM [1, 3]: 11.3 ± 0.61% | inhibition at 1 µM [1, 3]: 14.6 ± 0.76% | inhibition at 10 µM [1, 3]: 22.4 ± 0.8% | inhibition at 100 µM [1, 3]: 63.2% | inhibition at 1000 µM [1, 3]: 81 ± 2.65% | IC50 (AChE (Human)): 41.1 ± 1.69 µM | inhibition at 0.001 µM (AChE (Human); [4]): 3 ± 0.12% | inhibition at 0.01 µM (AChE (Human); [4]): 5.51 ± 0.17% | inhibition at 0.1 µM (AChE (Human); [4]): 9.18 ± 0.22% | inhibition at 1 µM (AChE (Human); [4]): 10.5 ± 0.37% | inhibition at 10 µM (AChE (Human); [4]): 18.5 ± 0.54% | inhibition at 100 µM (AChE (Human); [4]): 68.4% | inhibition at 1000 µM (AChE (Human); [4]): 83.3 ± 1.78% | IC50 (BChE (Equine)): 0.015 ± 0.0006 µM | inhibition at 1000 µM (BChE (Equine); 10^-3 M, read-out: BChE (Equine) inhibitory activity (%) ± SD): 99.5 ± 2.97% | inhibition at 100 µM (BChE (Equine); 10^-4 M, read-out: BChE (Equine) inhibitory activity (%) ± SD): 99% | inhibition at 10 µM (BChE (Equine); 10^-5 M, read-out: BChE (Equine) inhibitory activity (%) ± SD): 92.5 ± 2.86% | inhibition at 1 µM (BChE (Equine); 10^-6 M, read-out: BChE (Equine) inhibitory activity (%) ± SD): 81.3 ± 1.25% | inhibition at 0.1 µM (BChE (Equine); 10^-7 M, read-out: BChE (Equine) inhibitory activity (%) ± SD): 49.3 ± 0.58% | inhibition at 0.01 µM (BChE (Equine); 10^-8 M, read-out: BChE (Equine) inhibitory activity (%) ± SD): 43.7 ± 1.11% | inhibition at 0.001 µM (BChE (Equine); 10^-9 M, read-out: BChE (Equine) inhibitory activity (%) ± SD): 39.25 ± 0.22% | IC50 (BChE (Human)): 0.014 ± 0.0005 µM | inhibition at 0.001 µM (BChE (Human); [5]): 37.2 ± 0.69% | inhibition at 0.01 µM (BChE (Human); [5]): 43.6 ± 0.84% | inhibition at 0.1 µM (BChE (Human); [5]): 50.5 ± 0.69% | inhibition at 1 µM (BChE (Human); [5]): 83.2 ± 1.07% | inhibition at 10 µM (BChE (Human); [5]): 93.7 ± 2.45% | inhibition at 100 µM (BChE (Human); [5]): 98.2% | inhibition at 1000 µM (BChE (Human); [5]): 99.3 ± 2.1% | inhibition type of BChE ([2]; Lineweaver-Burk plot, inhibitor at IC50/2, IC50, 2 x IC50): mixed inhibition | Ki ([2]; secondary plot of Lineweaver-Burk, substrate BTCI, read-out: steady-state inhibition constant (Ki) against BChE): 0.0175 µM | IC50 at 24 h (MTT cell viability assay): > 1000 µM
